Reference: article PMC8746798, “Evaluation of 2-Thioxoimadazolidin-4-one Derivatives as Potent Anti-Cancer Agents through Apoptosis Induction and Antioxidant Activation: In Vitro and In Vivo Approaches” (Molecules, 2021)

How the values were obtained:
[1] = system: Solid Ehrlich carcinoma (SEC); assay: In vivo anti-tumor assay: tumor volume and tumor inhibition ratio; details: SEC-bearing mice, 6 mg/kg; SEC control 5802 mm^3
Procedure: We used adult Swiss albino female mice with average body weight 18–23 g obtained from Theodor Bilharzia Research Institute in Giza, Egypt. Mice were kept under constant conditions of a 12 h light–dark cycle at temperatures below controlled moisture conditions (22 ± 2 °C) with standard laboratory mouse nutrition and water entries. Approval for the experimental protocol was provided from the ethical committee of Suez Canal University for this experimental protocol (approval number REC-06-2020, Faculty of Science, Suez Canal University). Mice were adapted for approximately 10 days before use in the experiment.
Solid Ehrlich carcinoma (SEC) was obtained from the National Cancer Institute (University of Cairo, Egypt). The tumor cell line proliferated in mice after serial implantation of the peritoneal cavity (I.P.) in 0.2 mL of physiological saline containing 1 × 10^6 viable cells for 24 h. […]
We measured the length and width of the tumor using a digital Vernier clipper (Tricle Brand, Shanghai, China), then we calculate the tumor volume using the formula: V = (L × W × W)/2, where V is tumor volume, W is tumor width, and L is tumor length, and calculated the tumor inhibition ratio% using the formula: TIR %= (C − T)/C × 100, where T represents mean tumor volume of treated group and C represents mean tumor volume of the control group.

[2] = Hematological parameters (CBC) in mice; assay type: in vivo; details: 6 mg/Kg BW; for Hemoglobin: mean ± SE n = 9
Procedure: We randomly divided 50 mice into groups 5 groups (10 mice in each group): normal control (I) (mice injected intraperitoneally with the same volume of solvent for 14 consecutive days); group II, a group of normal mice treated with compound 4 (mice injected intraperitoneally with newly produced compound 4 at a dose of 6 mg/kg per day for 14 days); group III, solid tumor group (mice were implanted with solid tumor); group IV, group were treated with 5-FU (after 10 days of tumor implantation, mice were treated with 6 mg/kg only once); and group V, solid tumor group were treated with compound 4 (after 10 days of tumor implantation, mice were treated with 6 mg/kg only once). after one day of the previous treatment, 10 mice from each group were sacrificed and tumor weight, tumor volume (length and width of solid femoral tumor), blood and liver samples were obtained from each group. A portion of each blood sample taken was used for complete blood count (CBC) and the rest was centrifuged to obtain the serum. Serum was used for biochemical parameter estimation. The livers were rapidly dissected, washed with isotonic saline, and dried. The experiment design is summarized in Supplementary Figure S3.
Complete blood counts (CBCs) were counted using an AbbottCELLDYN®1800 Automated Hematology Analyzer (Abbott Park, IL, USA) equipped with an off-the-shelf kit (Abbott Laboratories, Abbott Park, IL, USA). For microscopic histopathological examination, tumor and kidney slices were maintained in 10% formalin, dehydrated with graduated alcohol, embedded in paraffin sections, H&E stained, and hematoxylin stained.

[3] = Median lethal dose (LD50); details: mouse, in vivo, ip; mice, I.p., 24 h mortality
Procedure: Adopting the procedure described by Finney, different known concentrations of the imidamide 4 were intraperitoneally injected into a group of eight mice (weight on average 21.1 g). […] This assay was carried out evaluate its dose-safety limit and select the dose to be used in the treatment.

O=C1NC(=S)N(c2ccc(O)cc2)/C1=C/c1cccs1 [Compound 4, (E)-1-(4-Hydroxyphenyl)-5-(thiophen-2-ylmethylene)-2-thioxoimidazolidin-4-one]
tumor volume on the final day [1]: 2766 mm^3 | RBC’s count ([2]; SEC-bearing mice, SEC control 7.52 ± 0.5): 9.3 ± 0.4 ×10^6/µL | Hemoglobin ([2]; SEC-bearing mice, SEC control 11.8 ± 0.8): 13.3 ± 0.7 g/dL | WBC’s count ([2]; SEC-bearing mice, SEC control 16.5 ± 3.4): 9.5 ± 1.9 ×10^3/µL | RBC’s count ([2]; normal mice, normal control 8.8 ± 0.3): 8.7 ± 0.4 ×10^6/µL | WBC’s count ([2]; normal mice, normal control 9.4 ± 1.2): 9.42 ± 1.3 ×10^3/µL | Hemoglobin ([2]; normal mice, normal control 13.3 ± 0.7): 12.6 ± 0.5 g/dL | LD50 at 24 h [3]: 6 mg/kg
